Each structure is given as a SMILES string.

The first test addresses T1, neuropeptide Y5 receptor (Homo sapiens, UniProt Q15761).
T1 construct: expressed in transfected cells; host or cells: CHO cells (membranes)
T1 sequence (Q15761 1-445): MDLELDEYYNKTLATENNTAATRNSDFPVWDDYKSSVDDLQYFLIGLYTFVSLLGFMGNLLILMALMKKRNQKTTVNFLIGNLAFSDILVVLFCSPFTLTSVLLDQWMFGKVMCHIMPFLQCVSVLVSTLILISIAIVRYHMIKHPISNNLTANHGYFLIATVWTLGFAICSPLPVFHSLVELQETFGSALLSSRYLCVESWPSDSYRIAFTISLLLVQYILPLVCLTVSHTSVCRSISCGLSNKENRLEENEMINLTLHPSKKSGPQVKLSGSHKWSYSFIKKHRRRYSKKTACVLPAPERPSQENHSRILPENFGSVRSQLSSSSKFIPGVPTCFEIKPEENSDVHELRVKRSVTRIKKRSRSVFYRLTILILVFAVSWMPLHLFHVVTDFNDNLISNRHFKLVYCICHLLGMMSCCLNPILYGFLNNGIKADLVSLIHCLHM
In words: NPY Receptor Binding Assay (125I-peptide YY, CHO cell membranes, neuropeptide Y5 receptor).
Settings: not given
The protocol:
Human NPY receptors were expressed in CHO cells. Binding assays were performed in 50 mM HEPES, pH. […] Non-specific binding was determined in the presence of 1 uM NPY. The reaction mixtures were incubated for 90 minutes at 30° C. (NPY1 receptor) or at room temperature (NPY2, NPY4 and NPY5 receptors), then filtered through Millipore MAFC glass fiber filter plates which had been pre-soaked in 0.5% polyethyleneimine. The filters were washed with phosphate-buffered saline, and radioactivity was measured in a Packard TopCount scintillation counter.
The compound `CN(C)C(=O)Nc1ccc(SC(C)(C)C)cc1` [Example 1M] displayed a Ki of 152 nM.

The same test, now with this note: neuropeptide Y5 receptor binding; 0.1 nM 125I-peptide YY; room temperature, 90 minutes; pH 7.2; r/h Y5; read-out: r/h Y5 Ki.
For `CCCC(C)(C)Sc1ccc(NC(=O)C(C)(C)C)cc1` [Example 1], the Ki is 3 nM.
For the compound `CCCC(C)(C)Sc1ccc(NC(=O)NC2CCN(C)CC2)cc1` [Example 2Al], the Ki came out at 697 nM.
`CCCC(C)(C)Sc1ccc(NC(=O)N(C)CCCN(C)C)cc1` [Example 2X]: the Ki was determined as 50 nM.
`CCCC(C)(C)Sc1ccc(NC(=O)C(C)(C)C)cc1F` [Example 3]: the Ki was 9 nM.
Same read-out and setting: the figure for `CCCC(C)(C)Oc1ccc(NC(=O)CC(C)(C)C)cc1` [Example 6C] is 668 nM.
With `CCCCC1(Oc2ccc(NC(=O)N(C)c3ccccc3)cc2)CCCC1` [Example 6N], the Ki is 66 nM.
In the case of `CCCC(C)(C)Oc1ccc(NC(=O)C(C)(C)C)cc1` [Example 6], the Ki was 13 nM.
Same read-out and setting: the figure for `CCCC(C)(C)Sc1ccc(NC(=O)C(C)(C)N2CCN(c3ccccc3)CC2)cc1` [Example 8D] is 18 nM; for `CCCC(C)(C)Sc1ccc(NC(=O)N(C)C2CCN(S(C)(=O)=O)CC2)cc1` [Example 13A] it is 0.8 nM; for `CCC(C)(C)CCc1ccc(NC(=O)N(C)CCc2ccncc2)cc1` [Example 19] it is 0.4 nM.
